Measurements: PubChem BioAssay (NCI)
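These data come from cells grown in 96-well plates and exposed to compound for 48 hours at five concentrations. Definition used: TGI = concentration required for complete inhibition of growth.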

Tests used:
Experiment in all cases: growth of human tumour cells (NCI), 48 h
[1] = test system: CAKI-1 renal
[2] = test system: COLO 205 colon
[3] = test system: DU-145 prostate
[4] = test system: HOP-92 NSCLC
[5] = test system: HT29 colon
[6] = test system: K-562 leukemia
[7] = test system: NCI-H522 lung
[8] = test system: RPMI-8226 leukemia
[9] = test system: SF-295 CNS
[10] = test system: SN12C renal
[11] = test system: U251 CNS

Row | SMILES | TGI [1] | TGI [2] | TGI [3] | TGI [4] | TGI [5] | TGI [6] | TGI [7] | TGI [8] | TGI [9] | TGI [10] | TGI [11]
1 | COc1ccc2[nH]c(Cl)c(/C=C3/C(=O)Nc4cc(C)c(OC)cc43)c2c1 | 21.7 µM | 5.9 µM | 29.4 µM | 28.9 µM | 15 µM | > 100 µM | 9.62 µM | > 100 µM | 6 µM | 20.1 µM | 18 µM
2 | C=CCOc1ccccc1N=N/C(C#N)=N\Nc1ccccc1OCC=C | > 100 µM | > 100 µM | > 100 µM | > 100 µM | > 100 µM | > 100 µM | > 100 µM | > 100 µM | > 100 µM | > 100 µM | > 100 µM
3 | O=C(/C=C/c1ccsc1)c1ccco1 | – | 32.8 µM | 26.4 µM | 30.6 µM | 22.8 µM | > 56.4 µM | 4.67 µM | 16.1 µM | 27.2 µM | 28.6 µM | 20.3 µM
4 | O=C(Nc1nc2c(=O)[nH]cnc2s1)c1ccccc1 | > 100 µM | > 100 µM | > 100 µM | > 100 µM | > 100 µM | > 100 µM | > 100 µM | – | > 100 µM | > 100 µM | > 100 µM
5 | Cc1ccc(OCC2OC(n3cnc4c(N(C)C)nc(Br)nc43)CC2Oc2ccc(C)cc2)cc1 (stereo not given) | > 100 µM | > 100 µM | > 100 µM | > 100 µM | > 100 µM | > 100 µM | > 100 µM | > 100 µM | > 100 µM | > 100 µM | > 100 µM
6 | COC(=O)C(CCc1ccccc1I)C1=CCC2(CC1)OCCO2 (stereo not given) | > 100 µM | > 100 µM | > 100 µM | > 100 µM | > 100 µM | > 100 µM | 68.8 µM | > 100 µM | > 100 µM | – | > 100 µM
7 | NC(=Nc1ccc(O)cc1)S(=O)(=O)O | > 100 µM | > 100 µM | > 100 µM | > 100 µM | > 100 µM | > 100 µM | > 100 µM | – | > 100 µM | > 100 µM | > 100 µM
8 | COc1cc(OC)c2c(O)c3c(cc2c1)CC(C)(C)CC3=O | > 100 µM | > 100 µM | > 100 µM | > 100 µM | > 100 µM | > 100 µM | > 100 µM | > 100 µM | > 100 µM | > 100 µM | > 100 µM
9 | CC(C(=O)ON1C(=O)CCC1=O)c1ccc(C(=O)c2ccccc2)s1 (stereo not given) | > 100 µM | > 100 µM | > 100 µM | > 100 µM | > 100 µM | > 100 µM | > 100 µM | > 100 µM | > 100 µM | > 100 µM | > 100 µM
10 | O=C1/C(=C\c2cccc(Oc3ccccc3)c2)S(=O)(=O)C(c2ccccc2)N1c1ccccc1Cl (stereo not given) | > 100 µM | 33.5 µM | > 100 µM | 73.5 µM | 70.3 µM | 64.2 µM | 49.1 µM | 56.8 µM | > 100 µM | 72 µM | > 100 µM
11 | CC(C)[C@@H]1CC[C@@H](C)C[C@H]1OC(=O)/C=C1/C2C=CC(O2)C1C(=O)O[C@@H]1C[C@H](C)CC[C@H]1C(C)C (stereo not given in full) | > 100 µM | > 100 µM | > 100 µM | > 100 µM | > 100 µM | > 100 µM | > 100 µM | > 100 µM | > 100 µM | > 100 µM | > 100 µM
12 | COC1=C(N=[N+]=[N-])C(=O)c2ncccc2C1=O | 13.3 µM | 6.35 µM | 35.1 µM | 2.56 µM | 33 µM | 15.2 µM | 3.9 µM | 4.89 µM | 29 µM | 29.1 µM | 27.7 µM
13 | CCOC(=O)c1cc(C(=O)c2ccccc2)n2nc(-c3ccc(Cl)cc3)ccc12 | 81.3 µM | > 100 µM | 85.2 µM | 60.5 µM | 64.2 µM | > 100 µM | 43.7 µM | > 100 µM | 54.2 µM | 78.6 µM | 66.3 µM
14 | O=c1[nH]nc(-c2ccccc2)n1/N=C/c1ccncc1 | > 100 µM | > 100 µM | > 100 µM | > 100 µM | > 100 µM | > 100 µM | > 100 µM | > 100 µM | > 100 µM | > 100 µM | > 100 µM
15 | CC(=O)N1CCc2c([nH]c3ccc(Br)cc23)C1c1ccccc1 (stereo not given) | > 10 µM | > 10 µM | > 10 µM | > 10 µM | > 10 µM | > 10 µM | > 10 µM | > 10 µM | > 10 µM | > 10 µM | > 10 µM
16 | CC(C)CCC[C@@H](C)[C@H]1CCC2C3CC=C4C[C@@H](Oc5c6ccccc6nc6ccccc56)CCC4C3CCC21 (stereo not given in full) | > 50 µM | > 50 µM | > 50 µM | > 50 µM | > 50 µM | > 50 µM | > 50 µM | – | > 50 µM | > 50 µM | > 50 µM
17 | CCCCCC(=O)N[C@@H](c1ccccc1)C(O)C(=O)OC1C[C@@]2(O)C(OC(=O)c3ccccc3)C3[C@](C)(C(=O)[C@H](O)C(=C1C)C2(C)C)C(OC1OCC(O)C(O)C1O)C[C@H]1OC[C@@]31OC(C)=O (stereo not given in full) | – | 8.15 µM | 13.4 µM | > 100 µM | > 36.8 µM | > 100 µM | 3.92 µM | > 100 µM | > 93.7 µM | > 100 µM | > 100 µM
18 | CCCCCCCCCCCCCCCCCCNc1ccn(C2OC(COP(=O)(O)OCC3CCC(n4cnc5c(=O)[nH]cnc54)O3)C(O)C2O)c(=O)n1 (stereo not given) | > 100 µM | > 100 µM | > 100 µM | > 100 µM | > 100 µM | – | > 100 µM | – | > 100 µM | > 100 µM | > 100 µM
19 | Cn1c(C(C#N)c2nc(Cl)ncc2Br)nc2ccccc21 (stereo not given) | > 100 µM | > 100 µM | > 100 µM | > 100 µM | > 100 µM | – | > 100 µM | > 100 µM | > 100 µM | > 100 µM | > 100 µM
